Reference: patent US20170050957A1, “4-AMINO-6-(HETEROCYCLIC)PICOLINATES AND 6-AMINO-2-(HETEROCYCLIC)PYRIMIDINE-4-CARBOXYLATES AND THEIR USE AS HERBICIDES” (Dow AgroSciences LLC, priority 2013, published 2017)
Like-named read-outs stand apart in the source and are kept apart here.

Key:
[1] = tested on: Key Broadleaf Weed and Crop Species; assay: Post-emergent Test II herbicidal activity (Table 15); assay type: in vivo; details: post-emergence, 336 h, 14 d; for pest or weed control at 35 g/ha: 35 g ai/ha; for pest or weed control at 70 g/ha: 70 g ai/ha; for pest or weed control at 140 g/ha: 140 g ai/ha
Summary of the method: (§1)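 Plants at first-second true leaf stage, grown 7-21 d in greenhouse (~15 h photoperiod, 23-29 °C day), were track-sprayed at 187 L/ha with compound in acetone/DMSO/water/isopropanol/crop oil/Triton X-155 at a high rate plus 1/2× to 1/16× dilutions. Injury scored visually after 14 d versus untreated plants, 0 (none) to 100% (complete kill).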

[2] = tested on: Key Grass and Sedge Weeds as well as Grass Crops; assay: Post-emergent Test II herbicidal activity (Table 16); assay type: in vivo; details: post-emergence, 336 h, 14 d; for pest or weed control at 35 g/ha: 35 g ai/ha; for pest or weed control at 70 g/ha: 70 g ai/ha; for pest or weed control at 140 g/ha: 140 g ai/ha
Summary of the method: as §1

[3] = Abutilon theophrasti, velvetleaf (Abutilon theophrasti), read-out: Visual Growth Reduction (%) 14 Days After Application, ABUTH
[4] = Amaranthus retroflexus, redroot pigweed (Amaranthus retroflexus), read-out: Visual Growth Reduction (%) 14 Days After Application, AMARE
[5] = Brassica napus, oilseed rape, canola (Brassica napus), read-out: Visual Growth Reduction (%) 14 Days After Application, BRSNN
[6] = Chenopodium album, lambsquarters (Chenopodium album), read-out: Visual Growth Reduction (%) 14 Days After Application, CHEAL
[7] = Euphorbia heterophylla, wild poinsettia (Euphorbia heterophylla), read-out: Visual Growth Reduction (%) 14 Days After Application, EPHHL
[8] = Helianthus annuus, sunflower (Helianthus annuus), read-out: Visual Growth Reduction (%) 14 Days After Application, HELAN
[9] = Cyperus esculentus, yellow nutsedge (Cyperus esculentus), read-out: Visual Growth Reduction (%) 14 Days After Application, CYPES
[10] = Echinochloa crus-galli, barnyardgrass (Echinochloa crus-galli), read-out: Visual Growth Reduction (%) 14 Days After Application, ECHCG
[11] = Oryza sativa, rice (Oryza sativa), read-out: Visual Growth Reduction (%) 14 Days After Application, ORYSA
[12] = Setaria faberi, giant foxtail (Setaria faberi), read-out: Visual Growth Reduction (%) 14 Days After Application, SETFA
[13] = Triticum aestivum, wheat, spring (Triticum aestivum), read-out: Visual Growth Reduction (%) 14 Days After Application, TRZAS
[14] = Zea mays, maize, corn (Zea mays), read-out: Visual Growth Reduction (%) 14 Days After Application, ZEAMX

melting point [°C]	SMILES	pest or weed control at 35 g/ha [1, 3] [%]	pest or weed control at 70 g/ha [1, 3] [%]	pest or weed control at 140 g/ha [1, 3] [%]	pest or weed control at 35 g/ha [1, 4] [%]	pest or weed control at 70 g/ha [1, 4] [%]	pest or weed control at 140 g/ha [1, 4] [%]	pest or weed control at 35 g/ha [1, 5] [%]	pest or weed control at 70 g/ha [1, 5] [%]	pest or weed control at 140 g/ha [1, 5] [%]	pest or weed control at 35 g/ha [1, 6] [%]	pest or weed control at 70 g/ha [1, 6] [%]	pest or weed control at 140 g/ha [1, 6] [%]	pest or weed control at 35 g/ha [1, 7] [%]	pest or weed control at 70 g/ha [1, 7] [%]	pest or weed control at 140 g/ha [1, 7] [%]	pest or weed control at 35 g/ha [1, 8] [%]	pest or weed control at 70 g/ha [1, 8] [%]	pest or weed control at 140 g/ha [1, 8] [%]	pest or weed control at 35 g/ha [2, 9] [%]	also measured
157 to 159	Nc1c(Cl)c(C(=O)O)nc(-c2ccc3sccc3c2)c1Cl [Compound 3.02, 4-Amino-6-(benzo[b]thiophen-5-yl)-3,5-dichloropicolinic acid]	0 to 29	0 to 29	0 to 29	95 to 100	95 to 100	95 to 100	0 to 29	0 to 29	0 to 29	85 to 94	85 to 94	85 to 94	0 to 29	0 to 29	0 to 29	60 to 74	75 to 84	85 to 94	0 to 29	pest or weed control at 70 g/ha [2, 9]: 0 to 29%; pest or weed control at 140 g/ha [2, 9]: 0 to 29%; pest or weed control at 35 g/ha [2, 10]: 0 to 29%; pest or weed control at 70 g/ha [2, 10]: 0 to 29%; pest or weed control at 140 g/ha [2, 10]: 0 to 29%; pest or weed control at 35 g/ha [2, 11]: 0 to 29%; pest or weed control at 70 g/ha [2, 11]: 0 to 29%; pest or weed control at 140 g/ha [2, 11]: 0 to 29%; pest or weed control at 35 g/ha [2, 12]: 0 to 29%; pest or weed control at 70 g/ha [2, 12]: 0 to 29%; pest or weed control at 140 g/ha [2, 12]: 0 to 29%; pest or weed control at 35 g/ha [2, 13]: 0 to 29%; pest or weed control at 70 g/ha [2, 13]: 0 to 29%; pest or weed control at 140 g/ha [2, 13]: 0 to 29%; pest or weed control at 35 g/ha [2, 14]: 0 to 29%; pest or weed control at 70 g/ha [2, 14]: 60 to 74%; pest or weed control at 140 g/ha [2, 14]: 60 to 74%
84 to 85	COC(=O)c1nc(-c2ccc3sccc3c2)c(F)c(N)c1Cl [Compound 3.03]	95 to 100	95 to 100	95 to 100	95 to 100	95 to 100	95 to 100	0 to 29	60 to 74	60 to 74	95 to 100	95 to 100	95 to 100	95 to 100	95 to 100	95 to 100	95 to 100	95 to 100	95 to 100	45 to 59	pest or weed control at 70 g/ha [2, 9]: 45 to 59%; pest or weed control at 140 g/ha [2, 9]: 45 to 59%; pest or weed control at 35 g/ha [2, 10]: 85 to 94%; pest or weed control at 70 g/ha [2, 10]: 95 to 100%; pest or weed control at 140 g/ha [2, 10]: 95 to 100%; pest or weed control at 35 g/ha [2, 11]: 0 to 29%; pest or weed control at 70 g/ha [2, 11]: 0 to 29%; pest or weed control at 140 g/ha [2, 11]: 0 to 29%; pest or weed control at 35 g/ha [2, 12]: 0 to 29%; pest or weed control at 70 g/ha [2, 12]: 85 to 94%; pest or weed control at 140 g/ha [2, 12]: 85 to 94%; pest or weed control at 35 g/ha [2, 13]: 0 to 29%; pest or weed control at 70 g/ha [2, 13]: 30 to 44%; pest or weed control at 140 g/ha [2, 13]: 45 to 59%; pest or weed control at 35 g/ha [2, 14]: 95 to 100%; pest or weed control at 70 g/ha [2, 14]: 95 to 100%; pest or weed control at 140 g/ha [2, 14]: 95 to 100%
155 to 159	COC(=O)c1nc(-c2ccc3sccc3c2)c(C)c(N)c1Cl [Compound 3.06]	45 to 59	60 to 74	85 to 94	85 to 94	85 to 94	95 to 100	30 to 44	30 to 44	45 to 59	30 to 44	60 to 74	60 to 74	0 to 29	0 to 29	30 to 44	95 to 100	95 to 100	95 to 100	0 to 29	pest or weed control at 70 g/ha [2, 9]: 0 to 29%; pest or weed control at 140 g/ha [2, 9]: 0 to 29%; pest or weed control at 35 g/ha [2, 10]: 0 to 29%; pest or weed control at 70 g/ha [2, 10]: 0 to 29%; pest or weed control at 140 g/ha [2, 10]: 0 to 29%; pest or weed control at 35 g/ha [2, 11]: 0 to 29%; pest or weed control at 70 g/ha [2, 11]: 0 to 29%; pest or weed control at 140 g/ha [2, 11]: 0 to 29%; pest or weed control at 35 g/ha [2, 12]: 0 to 29%; pest or weed control at 70 g/ha [2, 12]: 0 to 29%; pest or weed control at 140 g/ha [2, 12]: 0 to 29%; pest or weed control at 35 g/ha [2, 13]: 0 to 29%; pest or weed control at 70 g/ha [2, 13]: 0 to 29%; pest or weed control at 140 g/ha [2, 13]: 0 to 29%; pest or weed control at 35 g/ha [2, 14]: 0 to 29%; pest or weed control at 70 g/ha [2, 14]: 0 to 29%; pest or weed control at 140 g/ha [2, 14]: 0 to 29%
